Reference: ChEMBL document CHEMBL5230145, “Bifunctional μ opioid and σ1 receptor ligands as novel analgesics with reduced side effects” (Eur J Med Chem, 2021)

Legend:
[1] = Therapeutic index, ratio of LD50 for toxicity in ip dosed rodent to ED50 for analgesic activity in ip dosed rodent; format: organism-based; details: rodentia, in vivo, read-out: Ratio LD50/ED50
[2] = Toxicity in ip dosed rodent; format: organism-based; details: rodentia, in vivo
[3] = tested on: Rodentia sp.; assay: Analgesic activity in ip dosed formalin-induced pain rodent model; format: functional
[4] = target: T1, Mu-type opioid receptor (Homo sapiens, UniProt P35372); assay: Binding affinity to mu opioid receptor (unknown origin) assessed as inhibition constant in presence of Levorphanol
[5] = tested on: Mus musculus; assay: Antiallodynic activity in ip dosed MIA induced mechanical allodynia mouse model; format: functional
[6] = target: T1, Mu-type opioid receptor; assay: Displacement of [3H]-DAMGO from human mu opioid receptor expressed in CHO-K1 cells membrane incubated for 60 mins by MicroBeta scintillation counter assay; format: cell membranes
[7] = target: Sigma non-opioid intracellular receptor 1 (Homo sapiens, UniProt Q99720); assay: Displacement of [3H](+)-pentazocine from human sigma 1 receptor expressed in HEK293 cells membrane incubated for 120 mins by MicroBeta scintillation counter assay; format: cell membranes
[8] = Metabolic stability in mini-pig liver microsomes assessed as compound remaining after 1 hr; format: ADME, Sus scrofa domesticus, Microsome; details: read-out: Stability
[9] = Therapeutic index, ratio of LD50 for toxicity in ig dosed Sprague-Dawley rat to ED50 for analgesic activity in ig dosed Sprague-Dawley rat; format: organism-based; details: in vivo, po, read-out: Ratio LD50/ED50
[10] = tested on: Rattus norvegicus; assay: Analgesic activity in ig dosed formalin-induced pain Sprague-Dawley rat model; format: functional; details: po
[11] = Toxicity in ig dosed Sprague-Dawley rat; format: organism-based; details: in vivo, po

Chain of Sigma non-opioid intracellular receptor 1 (Q99720 whole entry): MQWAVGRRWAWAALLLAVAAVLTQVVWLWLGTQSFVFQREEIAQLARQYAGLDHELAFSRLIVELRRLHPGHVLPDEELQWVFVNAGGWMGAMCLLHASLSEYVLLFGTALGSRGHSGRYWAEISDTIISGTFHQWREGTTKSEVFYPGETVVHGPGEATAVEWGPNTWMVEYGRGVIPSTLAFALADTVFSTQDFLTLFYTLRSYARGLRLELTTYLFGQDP
T1 sequence (P35372 whole entry): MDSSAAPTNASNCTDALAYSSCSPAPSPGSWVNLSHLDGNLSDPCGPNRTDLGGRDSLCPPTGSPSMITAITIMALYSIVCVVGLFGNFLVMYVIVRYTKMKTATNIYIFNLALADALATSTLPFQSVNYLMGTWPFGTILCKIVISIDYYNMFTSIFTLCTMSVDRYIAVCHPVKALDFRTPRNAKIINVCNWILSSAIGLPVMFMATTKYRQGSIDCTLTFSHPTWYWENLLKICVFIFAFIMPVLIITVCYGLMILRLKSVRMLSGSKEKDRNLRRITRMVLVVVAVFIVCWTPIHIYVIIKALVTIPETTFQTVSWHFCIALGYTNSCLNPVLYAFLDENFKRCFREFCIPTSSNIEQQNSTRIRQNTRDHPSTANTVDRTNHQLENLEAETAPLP

| Compound | Ki [6] [nM] | Ki [7] [nM] | other results |
| --- | --- | --- | --- |
| Cc1cc(OCCN2CCOCC2)nn1-c1ccc2ccccc2c1 | – | – | selectivity ratio [1]: 12; LD50 [2]: 397 mg/kg; ED50 [3]: 33.2 mg/kg |
| C[C@@H]1[C@@H]2Cc3ccc(O)cc3[C@]1(C)CCN2CCc1ccccc1 | – | – | Ki [4]: 55 nM |
| C[C@H]1[C@H]2Cc3ccc(O)cc3[C@@]1(C)CCN2CCc1ccccc1 | – | – | Ki [4]: 0.2 nM |
| CCC(=O)N(CC1(N2CCN(CC(C)C)CC2)CCOCC1)c1cccc(C(F)(F)F)n1 | – | – | ED50 [5]: 31.9 mg/kg |
| CC(=O)Oc1cccc(C2CCN(Cc3cn(-c4ccccc4)nn3)CC2)c1 | < 100 | < 100 | – |
| [2H]C([2H])([2H])C([2H])([2H])N1CC2(CCN(C([2H])([2H])C([2H])([2H])c3cc(F)ccc3F)CC2)O[C@H](C)C1=O | – | – | remaining at 1 h [8]: 64% |
| CC(C)S(=O)(=O)Nc1cccc(C2CCN(Cc3cn(-c4ccccc4)nn3)CC2)c1 | < 100 | < 100 | – |
| CN1CCc2ccccc2C12CCN(CCc1ccccc1)CC2 | < 100 | < 100 | – |
| CC(C)S(=O)(=O)Nc1cccc(N2CCN(Cc3cn(-c4ccccc4F)nn3)CC2)c1 | < 100 | < 100 | – |
| CC(C)S(=O)(=O)Nc1cccc(N2CCN(Cc3cn(-c4ccccc4)nn3)CC2)c1 | < 100 | < 100 | – |
| COc1ccc2c(c1)CCN(C)C21CCN(CCc2ccccc2)CC1 | < 100 | < 100 | – |
| CCOCCN1CCCCC(CC)(c2cccc(O)c2)C1 (stereo unspecified) | < 100 | < 100 | – |
| CCC(=O)N(CCN1CCC(N(C)Cc2ccccc2)C1)c1ccccc1 (stereo unspecified) | – | 100 | – |
| O=C(c1ccccn1)C1(N2CCN(Cc3ccccc3)CC2)CCOC2(CCCC2)C1 (stereo unspecified) | < 100 | < 100 | – |
| CCN1CC2(CCN(CCc3ccccc3)CC2)c2ccccc2C1=O | 100 | 100 | – |
| CN(CCOC(c1cccs1)c1ccnn1C)Cc1ccccc1 (stereo unspecified) | < 100 | < 100 | – |
| Clc1ccc(-c2noc(CCCCN3CCCCC3)n2)c(Cl)c1 | – | – | selectivity ratio [9]: 18.2; ED50 [10]: 52.5 mg/kg; LD50 [11]: 957 mg/kg |
| Oc1cccc(C2CCN(Cc3cn(-c4ccccc4)nn3)CC2)c1 | < 100 | < 100 | – |
| CN1CC2(CCN(CCc3ccccc3)CC2)c2ccccc2C1=O | 100 | 100 | – |
| CN(CCOC(c1cccs1)c1ccnn1C)CCc1ccccc1 (stereo unspecified) | < 100 | < 100 | – |
| O=C(c1ccccc1)C1(N2CCN(Cc3ccccc3)CC2)CCOC2(CCCC2)C1 (stereo unspecified) | < 100 | < 100 | – |
| O=C(c1cccc(C(F)(F)F)n1)C1(N2CCN(Cc3ccccc3)CC2)CCOC2(CCCC2)C1 (stereo unspecified) | < 100 | < 100 | – |
